No end group written: not given here.
What was measured:
whole bacteria, CF 0166 = experiment: Agglutination of whole bacteria by serum of immunized rabbits; type: cell-based, E. coli; conditions: two rabbits immunized per preparation
whole bacteria, CF CS17 = experiment: as above; type: cell-based, E. coli; conditions: two rabbits immunized per preparation
whole bacteria, CF CFA/1 = experiment: as above; type: cell-based, E. coli; conditions: two rabbits immunized per preparation
CS2 = experiment: Western blot of immune serum with denatured protein; type: binding, E. coli; conditions: 4 strong reaction, rabbit serum
Protocol: (§1) Rabbits were bled, then immunized on day 0 with a composition containing 280 μg peptide/BSA conjugate in Freund's complete adjuvant. On day 21, the animals were boosted with 140 μg peptide/BSA conjugate in Freund's incomplete adjuvant. Blood was drawn on day 32. The interaction of antibodies raised against the specific antigens of the denatured proteins of the various strains was studied by comparing interaction of serum from the animals obtained on day 0 with response on to serum from the animals obtained on day 32 by Western blot. In all instances, the Western blot was negative for reaction with serum obtained on day 0. The Western blot data on interaction of immune serum collected on day 32 with the denatured proteins is given below with 0 being no reaction and 4 being a strong reaction:
(§2) Rabbits were given a composition containing 400 μg peptide of the formula: […] (SEQ ID NO:1) in complete Freund's adjuvant. The response was evaluated as in Example 2:
(§3) The same study was done comparing antibodies raised to denatured proteins of PCF 0166.
(§4) Effect of antibody raised to whole CS2 protein was studied in the manner of example 5.

CFA/I = experiment: as above; type: binding, E. coli; conditions: 4 strong reaction, rabbit serum
Protocol: as §1, §2, §3, §4

CS17 = experiment: as above; type: binding, E. coli; conditions: 4 strong reaction, rabbit serum
Protocol: as §1, §2, §3, §4

CS1 = experiment: as above; type: binding, E. coli; conditions: 4 strong reaction, rabbit serum
Protocol: as §1, §2, §3, §4

0166 = experiment: as above; type: binding, E. coli; conditions: 4 strong reaction, rabbit serum
Protocol: as §1, §2, §3, §4

CS4 = experiment: as above; type: binding, E. coli; conditions: 4 strong reaction, rabbit serum
Protocol: as §1, §2, §3, §4

whole bacteria, CF CS1 = experiment: Agglutination of whole bacteria by serum of immunized rabbits; type: cell-based, E. coli; conditions: two rabbits immunized per preparation
whole bacteria, CF CS4 = experiment: as above; type: cell-based, E. coli; conditions: two rabbits immunized per preparation
whole bacteria, CF CS2 = experiment: as above; type: cell-based, E. coli; conditions: two rabbits immunized per preparation

peptide/BSA conjugate: consensus peptide with added terminal cysteine (SEQ ID NO:37) conjugated to iodoacetylated bovine serum albumin (CVEKNITVTASVDPTIDLLQADGSALPSAVALTYSPA; also: conjugated via added terminal Cys to iodoacetylated BSA; listed as Escherichia coli)
agglutination of whole bacteria by serum (whole bacteria, CF 0166): 1/2
agglutination of whole bacteria by serum (whole bacteria, CF CS17): 0/2
agglutination of whole bacteria by serum (whole bacteria, CF CFA/1): 1/2
Western blot reaction of immune serum with denatured protein (CS2; titer 1:50, 0 no reaction): 4
Western blot reaction of immune serum with denatured protein (CS2; titer 1:500, 0 no reaction): 4
Western blot reaction of immune serum with denatured protein (CS2; titer 1:5000, 0 no reaction): 4
Western blot reaction of immune serum with denatured protein (CFA/I; titer 1:50, 0 no reaction): 4
Western blot reaction of immune serum with denatured protein (CFA/I; titer 1:500, 0 no reaction): 3
Western blot reaction of immune serum with denatured protein (CFA/I; titer 1:5000, 0 no reaction): 2
Western blot reaction of immune serum with denatured protein (CS17; titer 1:50, 0 no reaction): 4
Western blot reaction of immune serum with denatured protein (CS17; titer 1:500, 0 no reaction): 3
Western blot reaction of immune serum with denatured protein (CS17; titer 1:5000, 0 no reaction): 2
Western blot reaction of immune serum with denatured protein (CS17; titer 1:50000, 0 no reaction): 0.5
Western blot reaction of immune serum with denatured protein (CS1; titer 1:50, 0 no reaction): 4
Western blot reaction of immune serum with denatured protein (CS1; titer 1:500, 0 no reaction): 4
Western blot reaction of immune serum with denatured protein (CS1; titer 1:5000, 0 no reaction): 4
Western blot reaction of immune serum with denatured protein (CS1; titer 1:50000, 0 no reaction): 4
Western blot reaction of immune serum with denatured protein (0166; titer 1:50, 0 no reaction): 4
Western blot reaction of immune serum with denatured protein (0166; titer 1:500, 0 no reaction): 1
Western blot reaction of immune serum with denatured protein (0166; titer 1:5000, 0 no reaction): 3
Western blot reaction of immune serum with denatured protein (CS4; titer 1:50, 0 no reaction): 4
Western blot reaction of immune serum with denatured protein (CS4; titer 1:500, 0 no reaction): 4
Western blot reaction of immune serum with denatured protein (CS4; titer 1:5000, 0 no reaction): 3
Western blot reaction of immune serum with denatured protein (CS4; titer 1:50000, 0 no reaction): 2
agglutination of whole bacteria by serum (whole bacteria, CF CS1): 1/2
agglutination of whole bacteria by serum (whole bacteria, CF CS4): 0/2
agglutination of whole bacteria by serum (whole bacteria, CF CS2): 2/2

Source: US20040229772A1, “Peptides responsive to antibodies against consensus peptide of the CS4-CFA/I family proteins” (priority 1996, published 2004)
